Experimental data published in patent publication US10080751B2, “Systems and methods for treating bacterial infection” (priority 2016, dated 2018).
Where a name gives a salt, the structure may show the parent alone. Read-outs that look alike come from different tables or passages of the source.

Tests used:
[1] = test system: E. faecalis; assay: MIC with/without bovine pulmonary surfactant, E. faecalis; format: cell-based, Enterococcus faecalis; conditions: for MIC: Enterococcus faecalis
Experimental: (§1) Clinical isolates were identified by the submitting laboratories and confirmed by JMI Laboratories using standard bacteriologic algorithms and methodologies, including Matrix-Assisted Laser Desorption Ionization-Time Of Flight Mass Spectrometry (MALDI-TOF MS). When necessary, MALDI-TOF MS was performed using the Bruker Daltonics MALDI Biotyper (Billerica, Mass., USA), following manufacturer's instructions. Isolates selected were bacterial species commonly associated with pneumonia. […] 2.2 Susceptibility testing
(§2) Antibacterial susceptibility testing was measured by JMI Labs (North Liberty, Iowa, USA). […] These clinical isolates were collected from US (n=4), Mexico (n=2), and Italy (n=1). Susceptibility testing was performed by broth microdilution in accordance with the Clinical and Laboratory and Standards Institute (CLSI) guidelines M07-A10 (2015) and the standard operating procedures at JMI laboratories. Minimum inhibitory concentrations (MICs) were based on CLSI criteria (2015). There are no published breakpoints for iclaprim. E. coli, K. pneumoniae, M. catarrhalis, E. faecalis, and S. aureus were tested in cation-adjusted Mueller-Hinton broth (CA-MHB). S. pneumoniae were tested in CA-MHB supplemented with 2.5-5% lysed horse blood, and H. influenza were tested in Haemophilus test medium. Quality control and interpretation of results were performed in accordance with CLSI M100-S26 (2016) methods. QC ranges for iclaprim were those approved by CLSI and published in M100-S26 (2016). Iclaprim and comparator antibiotic MIC results were within the CLSI published ranges against E. coli ATCC 25922, E. faecalis ATCC 29212, E. faecalis ATCC 33186, H. influenzae ATCC 49247, K. pneumoniae ATCC 700603 (ESBL phenotype), S. aureus ATCC 29213, and S. pneumoniae ATCC 49619. Isolates were tested with MIC panels (ThermoFisher Scientific, Cleveland, Ohio, USA) of comparator antibiotics (daptomycin and levofloxacin).
(§3) Because bovine pulmonary surfactant can introduce cloudiness to the MIC testing media, antimicrobial growth inhibition was also evaluated using the colorimetric metabolic indicator resazurin (Camlab Ltd., Cambridge, UK). […] S. pneumoniae panels were omitted from resazurin analysis because the color change was obscured by the lysed horse blood present in the test medium. Growth inhibition was then evaluated as a visible color change from blue (no growth) to pink (robust growth) and recorded as a MICRZ value.
(§4) The MICs of iclaprim, levofloxacin, and daptomycin were determined against Gram-positive and Gram-negative isolates.
(§5) A new vial of bovine pulmonary surfactant (BPS; Survanta®; Abbott Laboratories, Columbus, Ohio) was utilized for each independent experiment. Each vial was mixed thoroughly and a 100 μL aliquot was spread on an agar plate, which was incubated overnight to confirm sterility. […] The concentration of surfactant was expressed in terms of percent volume of Survanta® suspension, which consisted of phospholipid (25 mg/mL) and surfactant proteins (<1 mg/mL) in 0.9% sodium chloride solution (Goerke, 1998). MICs of daptomycin were determined in CAMHB with the Ca^2+ content adjusted to 50 mg/L.

[2] = test system: M. catarrhalis; assay: MIC with/without bovine pulmonary surfactant, M. catarrhalis; format: cell-based, Moraxella catarrhalis; conditions: for MICRZ, Resazurin: +BPS: 2.5% v/v BPS; for MICRZ, Resazurin / MIC: no BPS; for MIC: Moraxella catarrhalis
Experimental: as §1, §2, §3, §4, §5

[3] = test system: S. aureus; assay: MIC with/without bovine pulmonary surfactant, S. aureus; format: cell-based, Staphylococcus aureus; conditions: for MICRZ, Resazurin: +BPS: 2.5% v/v BPS; for MICRZ, Resazurin: no BPS
Experimental: as §1, §2, §3, §4, §5

[4] = test system: S. pneumoniae; assay: MIC with/without bovine pulmonary surfactant, S. pneumoniae; format: cell-based; conditions: Streptococcus pneumoniae
Experimental: as §1, §2, §3, §4, §5

[5] = test system: common Gram-positive and Gram-negative respiratory bacteria; assay: Pulmonary surfactant interaction, overall effect on MIC and MICRZ; format: cell-based; conditions: respiratory Gram-positive strains and clinical isolates; read-out: MIC and MICRZ in the presence of 2.5% BPS
Experimental: Antibacterial susceptibility testing was measured by JMI Labs (North Liberty, Iowa, USA). […] These clinical isolates were collected from US (n=4), Mexico (n=2), and Italy (n=1). Susceptibility testing was performed by broth microdilution in accordance with the Clinical and Laboratory and Standards Institute (CLSI) guidelines M07-A10 (2015) and the standard operating procedures at JMI laboratories. Minimum inhibitory concentrations (MICs) were based on CLSI criteria (2015). There are no published breakpoints for iclaprim. E. coli, K. pneumoniae, M. catarrhalis, E. faecalis, and S. aureus were tested in cation-adjusted Mueller-Hinton broth (CA-MHB). […]
Because bovine pulmonary surfactant can introduce cloudiness to the MIC testing media, antimicrobial growth inhibition was also evaluated using the colorimetric metabolic indicator resazurin (Camlab Ltd., Cambridge, UK). […] Growth inhibition was then evaluated as a visible color change from blue (no growth) to pink (robust growth) and recorded as a MICRZ value.
as §4
A new vial of bovine pulmonary surfactant (BPS; Survanta®; Abbott Laboratories, Columbus, Ohio) was utilized for each independent experiment. […] MICs of daptomycin were determined in CAMHB with the Ca^2+ content adjusted to 50 mg/L. […]

[6] = both, rat, in vivo, iv, 4 weeks
Experimental: A repeated-dose, 4-week toxicity study was conducted in male and female rats, where single, daily IV bolus doses up to 60 mg/kg were given. […] A 28-day toxicity study was also conducted in male and female marmosets, where iclaprim mesylate was infused intravenously over a 20-minute interval.

[7] = test system: E. coli; assay: MIC with/without bovine pulmonary surfactant, E. coli; format: cell-based, Escherichia coli; conditions: E. coli ATCC 25922
Experimental: as §1, §2, §3, §4
A new vial of bovine pulmonary surfactant (BPS; Survanta®; Abbott Laboratories, Columbus, Ohio) was utilized for each independent experiment. […] MICs of daptomycin were determined in CAMHB with the Ca^2+ content adjusted to 50 mg/L.

[8] = test system: H. influenzae; assay: MIC with/without bovine pulmonary surfactant, H. influenzae; format: cell-based, Haemophilus influenzae; conditions: for MIC: Haemophilus influenzae
Experimental: as §1, §2, §3, §4, §5

[9] = test system: K. pneumoniae; assay: MIC with/without bovine pulmonary surfactant, K. pneumoniae; format: cell-based, Klebsiella pneumoniae; conditions: for MIC: Klebsiella pneumoniae
Experimental: as §1, §2, §3, §4, §5

[10] = E. faecalis ATCC 29212, 2.5% v/v BPS
[11] = E. faecalis ATCC 33186, 2.5% v/v BPS
[12] = ATCC29212, E. faecalis ATCC 29212, no BPS, read-out: MIC, CLSI
[13] = ATCC33186, E. faecalis ATCC 33186, no BPS, read-out: MIC, CLSI
[14] = M. catarrhalis Clinical Isolate 893806
[15] = M. catarrhalis Clinical Isolate 893807
[16] = S. aureus Clinical Isolate 825189
[17] = ATCC49619, S. pneumoniae ATCC 49619, 2.5% v/v BPS, read-out: MIC, CLSI: +BPS
[18] = ATCC49619, S. pneumoniae ATCC 49619, no BPS, read-out: MIC, CLSI
[19] = S. pneumoniae Clinical Isolate 818757, 2.5% v/v BPS, read-out: MIC, CLSI: +BPS
[20] = S. pneumoniae Clinical Isolate 818757, no BPS, read-out: MIC, CLSI
[21] = S. pneumoniae Clinical Isolate 825175, 2.5% v/v BPS, read-out: MIC, CLSI: +BPS
[22] = S. pneumoniae Clinical Isolate 825175, no BPS, read-out: MIC, CLSI

CCCCCCCCCC(=O)N[C@@H](Cc1c[nH]c2ccccc12)C(=O)N[C@H](CC(N)=O)C(=O)N[C@@H](CC(=O)O)C(=O)N[C@@H]1C(=O)NCC(=O)N[C@@H](CCCN)C(=O)N[C@@H](CC(=O)O)C(=O)N[C@H](C)C(=O)N[C@@H](CC(=O)O)C(=O)NCC(=O)N[C@H](CO)C(=O)N[C@@H]([C@H](C)CC(=O)O)C(=O)N[C@@H](CC(=O)c2ccccc2N)C(=O)O[C@@H]1C [Daptomycin]
0.25 µg/mL: MICRZ, Resazurin [3, 16] | MIC [4, 18] | MIC [4, 20] | MIC [4, 22]
2 µg/mL: MICRZ, Resazurin ([1]; E. faecalis ATCC 29212, no BPS) | MIC [1, 12]
8 µg/mL: MICRZ, Resazurin [2, 14] | MICRZ, Resazurin [2, 15] | MIC [2, 14]
> 16 µg/mL: MIC [5]
0.5 µg/mL: MICRZ, Resazurin ([3]; S. aureus ATCC 29213)
16 µg/mL: MIC [4, 17] | MIC [4, 19] | MIC [4, 21]
>16 µg/mL: MICRZ, Resazurin: +BPS [1, 10] | MICRZ, Resazurin: +BPS [1, 11] | MICRZ, Resazurin: +BPS [2, 14] | MICRZ, Resazurin: +BPS [2, 15] | MICRZ, Resazurin: +BPS ([3]; S. aureus ATCC 29213) | MICRZ, Resazurin: +BPS [3, 16]
1 µg/mL: MICRZ, Resazurin ([1]; E. faecalis ATCC 33186, no BPS) | MIC [1, 13]

COc1cc(Cc2cnc(N)nc2N)c2c(c1OC)OC(C1CC1)C=C2 (racemic) [iclaprim mesylate, 5-[(2RS)-2-cyclopropyl-7,8-dimethoxy-2Hchromen-5-ylmethyl] pyrimidine-2,4-diamine methanesulfonate]
≥ 10 mg/kg/day: dosages with histopathological changes at the injection sites [6]

C[C@H]1COc2c(N3CCN(C)CC3)c(F)cc3c(=O)c(C(=O)O)cn1c23 [Levofloxacin]
0.06 µg/mL: MICRZ, Resazurin: +BPS ([9]; K. pneumoniae Clinical Isolate 858055, 2.5% v/v BPS) | MICRZ, Resazurin ([9]; K. pneumoniae Clinical Isolate 858055, no BPS) | MIC ([9]; K. pneumoniae Clinical Isolate 858055, no BPS, read-out: MIC, CLSI) | MICRZ, Resazurin: +BPS [2, 14] | MICRZ, Resazurin [2, 14] | MICRZ, Resazurin: +BPS [2, 15] | MICRZ, Resazurin [2, 15] | MIC [2, 14]
1 µg/mL: MICRZ, Resazurin: +BPS [1, 10] | MICRZ, Resazurin ([1]; E. faecalis ATCC 29212, no BPS) | MIC ([1]; ATCC29212, E. faecalis ATCC 29212, 2.5% v/v BPS, read-out: MIC, CLSI: +BPS) | MIC [1, 12] | MIC ([1]; ATCC33186, E. faecalis ATCC 33186, 2.5% v/v BPS, read-out: MIC, CLSI: +BPS) | MICRZ, Resazurin: +BPS ([9]; K. pneumoniae ATCC 700603, 2.5% v/v BPS) | MICRZ, Resazurin ([9]; K. pneumoniae ATCC 700603, no BPS) | MIC ([9]; ATCC700603, K. pneumoniae ATCC 700603, 2.5% v/v BPS, read-out: MIC, CLSI: +BPS) | MIC ([9]; ATCC700603, K. pneumoniae ATCC 700603, no BPS, read-out: MIC, CLSI) | MIC [4, 17] | MIC [4, 18] | MIC [4, 19] | MIC [4, 20] | MIC [4, 21] | MIC [4, 22]
4 µg/mL: MICRZ, Resazurin ([1]; E. faecalis ATCC 33186, no BPS) | MIC [1, 13]
0.25 µg/mL: MICRZ, Resazurin ([3]; S. aureus ATCC 29213) | MICRZ, Resazurin: +BPS [3, 16] | MICRZ, Resazurin [3, 16]
2 µg/mL: MICRZ, Resazurin: +BPS [1, 11]
0.015 µg/mL: MICRZ, Resazurin ([7]; no BPS) | MICRZ, Resazurin: +BPS ([8]; H. influenzae Clinical Isolate 824704, 2.5% v/v BPS) | MICRZ, Resazurin ([8]; H. influenzae Clinical Isolate 824704, no BPS) | MIC ([8]; H. influenzae Clinical Isolate 824704, 2.5% v/v BPS, read-out: MIC, CLSI: +BPS) | MIC ([8]; H. influenzae Clinical Isolate 824704, no BPS, read-out: MIC, CLSI)
0.03 µg/mL: MICRZ, Resazurin: +BPS ([7]; 2.5% v/v BPS) | MICRZ, Resazurin: +BPS ([8]; H. influenzae ATCC 49247, 2.5% v/v BPS) | MICRZ, Resazurin ([8]; H. influenzae ATCC 49247, no BPS) | MIC ([8]; ATCC49247, H. influenzae ATCC 49247, 2.5% v/v BPS, read-out: MIC, CLSI: +BPS) | MIC ([8]; ATCC49247, H. influenzae ATCC 49247, no BPS, read-out: MIC, CLSI)
0.12 µg/mL: MIC ([9]; K. pneumoniae Clinical Isolate 858055, 2.5% v/v BPS, read-out: MIC, CLSI: +BPS) | MICRZ, Resazurin: +BPS ([3]; S. aureus ATCC 29213)
